Measurements reported in patent US5385909A, “Heterocyclic esters of rapamycin” (American Home Products Corporation, priority 1993, dated 1995).
Like-named read-outs stand apart in the source and are kept apart here.

Legend:
[1] = tested on: lymphocyte proliferation (thymus cells of normal BALB/c mice); test: Comitogen-induced thymocyte proliferation procedure (LAF); type: cell-based; details: Mus musculus, read-out: LAF IC50
Experimental: (§1) Immunosuppressive activity for representative compounds of this invention was evaluated in an in vitro standard pharmacological test procedure to measure lymphocyte proliferation (LAF) and in three in vivo standard pharmacological test procedures. The pinch skin graft test procedure measures the immunosuppressive activity of the compound tested as well as the ability of the compound tested to inhibit or treat transplant rejection. The adjuvant arthritis standard pharmacological test procedure, which measures the ability of the compound tested to inhibit immune mediated inflammation. The adjuvant arthritis test procedure is a standard pharmacological test procedure for rheumatoid arthritis. Representative compounds of this invention were also evaluated in a heart allograft standard pharmacological test procedure which measures immunosuppressive activity of the compound tested as well as the ability of the compound tested to inhibit or treat transplant rejection. The procedures for these standard pharmacological test procedures are provided below.
The comitogen-induced thymocyte proliferation procedure (LAF) was used as an in vitro measure of the immunosuppressive effects of representative compounds. Briefly, cells from the thymus of normal BALB/c mice are cultured for 72 hours with PHA and IL-1 and pulsed with tritiated thymidine during the last six hours. Cells are cultured with and without various concentrations of rapamycin, cyclosporin A, or test compound. Cells are harvested and incorporated radioactivity is determined. Inhibition of lymphoproliferation is assessed as percent change in counts per minute from non-drug treated controls. For each compound evaluated, rapamycin was also evaluated for the purpose of comparison. An IC50 was obtained for each test compound as well as for rapamycin. […] The results obtained are provided as an IC50.

[2] = tested on: adjuvant arthritis, uninjected (left) hind paw inflammation; test: Adjuvant arthritis standard pharmacological test procedure; type: in vivo, male Wistar Lewis rats; details: 2 mg/kg, oral, uninjected paw at day 16; for Percent change in adjuvant arthritis versus control: 7 doses day 0-14, more negative = more potent
Experimental: as §1
The adjuvant arthritis standard pharmacological test procedure measures the ability of test compounds to prevent immune mediated inflammation and inhibit or treat rheumatoid arthritis. The following briefly describes the test procedure used. A group of rats (male inbread Wistar Lewis rats) are pre-treated with the compound to be tested (1 h prior to antigen) and then injected with Freud's Complete Adjuvant (FCA) in the right hind paw to induce arthritis. The rats are then orally dosed on a Monday, Wednesday, Friday schedule from day 0-14 for a total of 7 doses. Both hind paws are measured on days 16, 23, and 30. The difference in paw volume (mL) from day 16 to day 0 is determined and a percent change from control is obtained. […] The right hind paw inflammation, on the other hand, is caused by nonspecific inflammation. Compounds were tested at a dose of 2 mg/kg.

pinch skin graft = test: Pinch skin graft survival test procedure; type: in vivo, male BALB/c donors, male C3 H(H-2K) recipients (mice); details: 4 mg/kg; intraperitoneally or orally; untreated grafts usually rejected within 6-7 days
Experimental: as §1
Representative compounds of this invention were also evaluated in an in vivo test procedure designed to determine the survival time of pinch skin graft from male BALB/c donors transplanted to male C3 H(H-2K) recipients. The method is adapted from Billingham R. E. and Medawar P. B., J. Exp. Biol. 28:385-402, (1951). Briefly, a pinch skin graft from the donor was grafted on the dorsum of the recipient as a allograft, and an isograft was used as control in the same region. The recipients were treated with either varying concentrations of test compounds intraperitoneally or orally. Rapamycin was used as a test control. Untreated recipients serve as rejection control. The graft was monitored daily and observations were recorded until the graft became dry and formed a blackened scab. This was considered as the rejection day. The mean graft survival time (number of days±S.D.) of the drug treatment group was compared with the control group. […] Results are expressed as the mean survival time in days. Untreated (control) pinch skin grafts are usually rejected within 6-7 days. Compounds were tested using a dose of 4 mg/kg.

heart allograft = test: Heterotropic heart allograft standard pharmacological test procedure; type: in vivo, BN rat neonate donors, male Lewis rat recipients; details: 300 μg/day, i.p.; untreated rejected in about 9-10 days
Experimental: as §1
The ability of the compounds of this invention to induce immunosuppression and inhibit or treat transplantation rejection was evaluated in a heterotropic heart allograft standard pharmacological test procedure that emulates transplantation rejection that occurs in humans. The following briefly describes the procedure that was used. […]

[3] = tested on: experimental allergic encephalomyelitis, a model for multiple sclerosis; details: in vivo; cited from earlier work
tumor = details: alone or in combination with picibanil; cited from earlier work
Candida albicans = details: in vitro and in vivo; cited from earlier work
[4] = tested on: formation of IgE-like antibodies; details: in vivo; cited from earlier work
[5] = tested on: adjuvant arthritis, a model for rheumatoid arthritis; details: in vivo; cited from earlier work
immunosuppression = details: cited from earlier work
[6] = 72 h culture with PHA and IL-1, tritiated thymidine incorporation

## CO[C@H]1C[C@@H]2CC[C@@H](C)[C@@](O)(O2)C(=O)C(=O)N2CCCC[C@H]2C(=O)O[C@H]([C@H](C)C[C@@H]2CC[C@@H](OC(=O)c3cccnc3C)[C@H](OC)C2)CC(=O)[C@H](C)/C=C(\C)[C@@H](O)[C@@H](OC)C(=O)[C@H](C)C[C@H](C)/C=C/C=C/C=C/1C [Example 1, Rapamycin 42-ester with 2-methylnicotinic acid]
[1]; [6]
  IC50: 1 nM
[2]
  Percent change in adjuvant arthritis versus control: -88%
Pinch skin graft
  Skin graft survival (mean survival time ± S.D.): 11.2 ± 0.8 days
Heart allograft
  Heart allograft survival (mean survival time): 29.9 days

## CO[C@H]1C[C@@H]2CC[C@@H](C)[C@@](O)(O2)C(=O)C(=O)N2CCCC[C@H]2C(=O)O[C@H]([C@H](C)C[C@@H]2CC[C@@H](OC(=O)c3cnc(C)cn3)[C@H](OC)C2)CC(=O)[C@H](C)/C=C(\C)[C@@H](O)[C@@H](OC)C(=O)[C@H](C)C[C@H](C)/C=C/C=C/C=C/1C [Example 4, Rapamycin 42-ester with 5-methylpyrazine-2-carboxylic acid]
[1]; [6]
  IC50: 0.28 nM
[2]
  Percent change in adjuvant arthritis versus control: -90%
Pinch skin graft
  Skin graft survival (mean survival time ± S.D.): 11.33 ± 0.82 days

## CO[C@H]1C[C@@H]2CC[C@@H](C)[C@@](O)(O2)C(=O)C(=O)N2CCCC[C@H]2C(=O)O[C@H]([C@H](C)C[C@@H]2CC[C@@H](O)[C@H](OC)C2)CC(=O)[C@H](C)/C=C(\C)[C@@H](O)[C@@H](OC)C(=O)[C@H](C)C[C@H](C)/C=C/C=C/C=C/1C [rapamycin]
[3]
  effectiveness in experimental allergic encephalomyelitis model: effective
[1]; 72 h
  IC50: 0.5 to 1.9 nM
tumor
  antitumor activity: antitumor activity
[2]
  less immune induced inflammation than control rats: 70-90%
Candida albicans
  antifungal activity: antifungal activity, particularly against Candida albicans, both in vitro and in vivo
[4]
  inhibition of formation of IgE-like antibodies: effectively inhibited
[5]
  effectiveness in adjuvant arthritis model: effective

## CO[C@H]1C[C@@H]2CC[C@@H](C)[C@@](O)(O2)C(=O)C(=O)N2CCCC[C@H]2C(=O)O[C@H]([C@H](C)C[C@@H]2CC[C@@H](OC(=O)c3ccc(C)nc3)[C@H](OC)C2)CC(=O)[C@H](C)/C=C(\C)[C@@H](O)[C@@H](OC)C(=O)[C@H](C)C[C@H](C)/C=C/C=C/C=C/1C [Example 3, Rapamycin 42-ester with 6-methylpyridine-3-carboxylic acid]
[1]; [6]
  IC50: 0.6 nM
[2]
  Percent change in adjuvant arthritis versus control: -87%
Pinch skin graft
  Skin graft survival (mean survival time ± S.D.): 12.5 ± 0.58 days

## C=CC[C@@H]1/C=C(\C)C[C@H](C)C[C@H](OC)[C@H]2O[C@@](O)(C(=O)C(=O)N3CCCC[C@H]3C(=O)O[C@H](/C(C)=C/[C@@H]3CC[C@@H](O)[C@H](OC)C3)[C@H](C)[C@@H](O)CC1=O)[C@H](C)C[C@@H]2OC [FK-506]
immunosuppression
  effective as immunosuppressive agents: effective

## CO[C@H]1C[C@@H]2CC[C@@H](C)[C@@](O)(O2)C(=O)C(=O)N2CCCC[C@H]2C(=O)O[C@H]([C@H](C)C[C@@H]2CC[C@@H](OC(=O)c3cccnc3)[C@H](OC)C2)CC(=O)[C@H](C)/C=C(\C)[C@@H](O)[C@@H](OC)C(=O)[C@H](C)C[C@H](C)/C=C/C=C/C=C/1C [Example 2, Rapamycin 42-ester with nicotinic acid]
[1]; [6]
  IC50: 0.17 nM
Pinch skin graft
  Skin graft survival (mean survival time ± S.D.): 9.60 ± 0.89 days
